The results in this text go back to patent US11214787B2, “Modified beta-lactamases and methods and uses related thereto” (priority 2010, dated 2022).

This data set is classed as in vivo. Particulars: beagle dogs; single dose ceftriaxone 30 mg/kg i.v., without beta-lactamase. How it is done:
The capability of Bacillus licheniformis D276N mutant beta-lactamase enzyme to inactivate ceftriaxone (CRO) which has been excreted into the gastrointestinal tract during parenteral therapy was investigated in a dog model. Laboratory beagles of the study have a nipple valve surgically inserted in jejunum approximately 170 cm distal to pylorus enabling collection of samples for the analysis. […] Five beagle dogs were utilized in each experiment.
The study was performed as two sequential treatments: In the first treatment (control experiment without beta-lactamase therapy), a single dose of ceftriaxone (30 mg of ceftriaxone (CRO) per kg of body weight which corresponds to about 1 gram dose of CRO in humans) was administered intravenously minutes after the first feeding of the dogs. Jejunal samples were collected at various time points during ten hours. The dogs were fed again five hours and forty minutes after the ceftriaxone administration in order to induce the biliary excretion of ceftriaxone accumulated in gallbladder.
Jejunal chyme samples were immediately freezed and stored at −20° C. to await the analysis. Chyme samples were pretreated with perchloric-citric acid in order to precipitate interfering substances. […] A reverse-phase high-pressure chromatography method with UV detection was used for the quantification of ceftriaxone in supernatants. […]

With `CO/N=C(\C(=O)N[C@@H]1C(=O)N2C(C(=O)O)=C(CSc3nc(=O)c(=O)[nH]n3C)CS[C@H]12)c1csc(N)n1` [ceftriaxone], the “highest jejunal ceftriaxone concentration” value is listed as “about 1500 micrograms per gram of jejunal chyme” and the “time of highest jejunal ceftriaxone concentration after injection” value came out at 60 min.
